Like-named read-outs stand apart in the source and are kept apart here.
Columns and labels:
[1] = cited from earlier work
[2] = biological target: T1, recombinant mouse LPLA2 (PLA2G15) (Mus musculus, UniProt Q8VEB4); assay: Transacylase activity of LPLA2 (1-O-acyl-N-acetylsphingosine synthase, cell-free liposome assay); type: biochemical
T1 construct: purchased Proteos Inc. (Kalamazoo, MI)
T1 sequence (Q8VEB4 34-412): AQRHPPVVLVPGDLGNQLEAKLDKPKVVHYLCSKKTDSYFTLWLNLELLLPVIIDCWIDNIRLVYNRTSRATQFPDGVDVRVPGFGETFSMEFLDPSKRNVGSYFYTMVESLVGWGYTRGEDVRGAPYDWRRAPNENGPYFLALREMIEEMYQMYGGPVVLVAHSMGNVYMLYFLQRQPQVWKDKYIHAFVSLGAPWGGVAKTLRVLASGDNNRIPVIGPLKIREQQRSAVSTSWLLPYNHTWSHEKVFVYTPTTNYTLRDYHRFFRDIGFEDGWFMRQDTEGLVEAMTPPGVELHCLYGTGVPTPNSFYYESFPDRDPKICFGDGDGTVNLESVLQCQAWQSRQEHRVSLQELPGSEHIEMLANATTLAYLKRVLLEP

LPLA2 = biological target: T2, LPLA2 (Mus musculus, UniProt Q8VEB4); assay: LPLA2 thermal stability measurement (SYPRO Orange Tm); type: binding
T2 construct: purchased Proteos Inc. (Kalamazoo, MI)
T2 sequence (Q8VEB4 34-412): T1 sequence (Q8VEB4 34-412)

[3] = ref Pubchem and chEMBL databases
[4] = 1-O-acyl N-acetylsphingosine synthase activity, pH 4.5, DOPC/sulfatide liposomes, read-out: LPLA2 IC50
[5] = ref Pubchem and chEMBL database
[6] = LPLA2 dependent 1-O-acyl N-acetylsphingosine synthase activity, read-out: LPLA2 IC50

Structure (SMILES) | pKa (basic) [1, 3] | IC50 [2, 4] [µM] | (ΔTm)c-(ΔTm)d, difference in melting temperature of LPLA2 alone or in the presence of drug (LPLA2; N=3 ± SD) [°C] | further results
CCN(CCCCOC(=O)c1ccc(OC)c(OC)c1)C(C)Cc1ccc(OC)cc1 (centres unmarked) [Mebeverine, 4-{ethyl[1-(4-methoxyphenyl)propan-2-yl]amino}butyl 3,4-dimethoxybenzoate] | 10.31 | 417 | -0.05 ± 0.5 | 
O=c1ccn([C@@H]2O[C@H](CO)[C@@H](O)[C@H]2O)c(=O)[nH]1 [uridine] |  |  | -1.71 ± 0.1 | 
CSc1ccc2c(c1)N(CCC1CCCCN1C)c1ccccc1S2 (centres unmarked) [Thioridazine, 10-[2-(1-methylpiperidin-2-yl)ethyl]-2-(methylsulfanyl) -10H-phenothiazine] | 8.93 |  |  | 
CCN(CC)C(C)CN1c2ccccc2Sc2ccccc21 (centres unmarked) [Profenamine, diethyl[1-(10H-phenothiazin-10-yl)propan-2-yl]amine] | 9.6 | 8.7 |  | 
COc1ccc2c(c1)[nH]c1c(C)nccc12 [Harmine] |  |  | -1.94 ± 0.9 | IC50 ([2]; LPLA2 IC50, LPLA2 dependent 1-O-acyl N-acetylsphingosine synthase activity): 633 µM
CC(C)(C#N)c1cc(Cn2cncn2)cc(C(C)(C)C#N)c1 [Anastrozole, 2;2″-[5-(1H-1;2;4-Triazol-1-ylmethyl)-1,3-phenylene]bis(2-methyl-propiononitrile)] | 2 | 4.82 | -1.05 ± 0.1 | 
CN1CCc2c(c3ccccc3n2Cc2ccccc2)C1 [mebhydroline] |  |  | 0.84 ± 0.1 | 
O=c1ccn([C@@H]2O[C@H](CO)[C@@H](O)[C@H]2O)c(=O)[nH]1 [Uridine] |  |  |  | pKa (basic) [1, 5]: -3
CC(C)(C)c1ccc(CN2CCN(C(c3ccccc3)c3ccc(Cl)cc3)CC2)cc1 (centres unmarked) [Buclizine, 1-((4-chlorophenyl)phenylmethyl)-4-((4-(1,1-dimethylethyl)phenyl)methyl)piperazine] | 8.04 | 9.13 | 0.63 ± 0.1 | 
C(=Cc1ccccc1)CN1CCN(C(c2ccccc2)c2ccccc2)CC1 [Cinnarizine, 1-(diphenylmethyl)-4-(3-phenylprop-2-en-1-yl) piperazine] | 8.44 |  |  | 
CC(C)C[C@H](N)C(=O)O [l-leucine] |  |  | 1.86 ± 0.6 | 
CC(C)COCC(CN(Cc1ccccc1)c1ccccc1)N1CCCC1 (centres unmarked) [bepridil] |  |  | 2.10 ± 0.6 | 
CC(Cc1cccc(C(F)(F)F)c1)NCCOC(=O)c1ccccc1 (centres unmarked) [Benfluorex, N-(1-methyl-2-(3-[trifluoromethyl]-phenyl)ethyl)amino ethanol benzoate ester] | 9.14 | 19.9 |  | 
CCCNCC(O)COc1ccccc1C(=O)CCc1ccccc1 (centres unmarked) [Propafenone, 1-{2-[2-hydroxy-3-(propylamino)propoxy]phenyl}-3-phenylpropan-1-one] |  | 48.2 |  | 
Cc1ccccc1C(OCCN(C)C)c1ccccc1 (centres unmarked) [Orphenadrine] |  |  |  | pKa (basic) [1, 5]: 8.87
CN(C)C(=O)C(CCN1CCC(O)(c2ccc(Cl)cc2)CC1)(c1ccccc1)c1ccccc1 [Loperamide, 4-[4-(4-chlorophenyl)-4-hydroxypiperidin-1-yl]-N,N-dimethyl-2,2-diphenylbutanamide] | 9.41 |  |  | 
CC(C)OC(=O)C(C)(C)Oc1ccc(C(=O)c2ccc(Cl)cc2)cc1 [Fenofibrate, 2-[4-(4-chlorobenzoyl)phenoxy]-2-methylpropanoic acid isopropyl ester] | -4.9 | 2.25 | 0.44 ± 0.7 | 
Cc1ccc(C(=O)Nc2ccc(S(=O)(=O)O)c3cc(S(=O)(=O)O)cc(S(=O)(=O)O)c23)cc1NC(=O)c1cccc(NC(=O)Nc2cccc(C(=O)Nc3cc(C(=O)Nc4ccc(S(=O)(=O)O)c5cc(S(=O)(=O)O)cc(S(=O)(=O)O)c45)ccc3C)c2)c1 [Suramin, 8-{4-methyl-3-[3-({[3-({2-methyl-5-[(4,6,8-trisulfonaphthalen-1yl)carbamoyl]phenyl}carbamoyl)phenyl]carbamoyl}amino)benzamido]benzamido}naphthalene-1,3,5-trisulfonic acid] |  | 35.5 | 0 | 
NCCc1cc(O)c(O)cc1O [6-Hydroxy-dopamine] |  |  |  | pKa (basic) [1, 5]: 9.85; IC50 [2, 6]: 88 µM

Structure (SMILES) | pKa (basic) [1, 3] | IC50 [2, 4] [µM] | (ΔTm)c-(ΔTm)d, difference in melting temperature of LPLA2 alone or in the presence of drug (LPLA2; N=3 ± SD) [°C] | further results
OCCN1CCN(CCCN2c3ccccc3Sc3ccc(Cl)cc32)CC1 [Perphenazine] | 8.21 |  |  | IC50 ([2]; LPLA2 IC50, 1-O-acyl N-acetylsphingosine synthase activity, pH 4.5, DOPC/sulfatide liposomes): 3.92 µM; (ΔTm)c-(ΔTm)d, difference in melting temperature of LPLA2 alone or in the presence of drug (LPLA2): -0.41 ± 0.2 °C
O=C(O)Cc1ccccc1Nc1c(Cl)cccc1Cl [Diclofenac] |  |  | 1.70 ± 0.5 | IC50 [2, 6]: 7.2 µM
CCN(CC)CCOc1ccc(C(=C(Cl)c2ccccc2)c2ccccc2)cc1 [Clomifene] |  |  |  | pKa (basic) [1, 5]: 9.31
CN1CCN(CCCN2c3ccccc3Sc3ccc(Cl)cc32)CC1 [Prochlorperazine] |  |  |  | pKa (basic) [1, 5]: 8.39
O=C1C(O)=C([C@H]2CC[C@H](c3ccc(Cl)cc3)CC2)C(=O)c2ccccc21 [atovaquone] |  |  | -0.17 ± 0.1 | 
CC(C)N(CCC(C(N)=O)(c1ccccc1)c1ccccn1)C(C)C (centres unmarked) [Disopyramide] |  |  |  | (ΔTm)c-(ΔTm)d, difference in melting temperature of LPLA2 alone or in the presence of drug (LPLA2): 0 °C
Fc1ccc(C(c2ccc(F)cc2)N2CCN(C/C=C/c3ccccc3)CC2)cc1 [Flunarizine, 1-[bis(4-fluorophenyl)methyl]-4-[(2E)-3-phenylprop-2-en-1-yl]piperazine] | 7.6 |  |  | 
CN1CCN2c3ncccc3Cc3ccccc3C2C1 (centres unmarked) [Mirtazapine, 5-methyl-2,5,19-triazatetracyclo [13.4.0.0^2,^7.0^8,^1³] nonadeca-1(15),8,10,12,16,18-hexaene] | 6.67 | 8.7 | -1.30 ± 0.7 | 
CCN(CC)CCc1nc(-c2ccccc2)no1 [oxolamine] |  |  | -0.89 ± 0.0 | 
OC[C@H]1OC(O)[C@H](O)[C@@H](O)[C@@H]1O (mixture of isomers) [D-( ± )-glucose] |  |  | 0 | 
CC#C[C@]1(O)CC[C@H]2[C@@H]3CCC4=CC(=O)CCC4=C3[C@@H](c3ccc(N(C)C)cc3)C[C@@]21C [Mifepristone, (1S,3aS,3bS,10R,11aS)-10-[4-(dimethylamino)phenyl]-1-hydroxy-11a-methyl-1-(prop-1-yn-1-yl)-1H,2H,3H,3aH, 3bH,4H,5H,7H,8H, 9H,10H,11H,11aH-cyclopenta[a]phenanthren-7-one] | 4.89 | 27.7 |  | (ΔTm)c-(ΔTm)d, difference in melting temperature of LPLA2 alone or in the presence of drug (LPLA2): 0.20 ± 0.0 °C
CC[C@H]1OC(=O)[C@H](C)[C@@H](O[C@H]2C[C@@](C)(OC)[C@@H](O)[C@H](C)O2)[C@H](C)[C@@H](O[C@@H]2O[C@H](C)C[C@H](N(C)C)[C@H]2O)[C@](C)(O)C[C@@H](C)C(=O)[C@H](C)[C@@H](O)[C@]1(C)O [Erythromycin, (3R,4S,5S,6R,7R,9R,11R,12R,13S,14R)-6-{[(2S,3R,4S,6R)-4-(dimethylamino)-3-hydroxy-6-methyloxan-2-yl]oxy}-14-ethyl-7,12,13-trihydroxy-4-{[(2R,4R,5S,6S)-5-hydroxy-4-methoxy-4,6-dimethyloxan-2-yl]oxy}-3,5,7,9,11,13-hexamethyl-1-oxacyclotetradecane-2,10-dione] | 8.38 | 117 | -0.48 ± 0.4 | 
NCC1(CC(=O)O)CCCCC1 [Gabapentin] |  |  |  | pKa (basic) [1, 5]: 9.91; IC50 [2, 6]: 37.4 µM
CC[C@]1(O)C[C@@H]2CN(CCc3c([nH]c4ccccc34)[C@@](C(=O)OC)(c3cc4c(cc3OC)N(C)[C@H]3[C@@](O)(C(=O)OC)[C@H](OC(C)=O)[C@]5(CC)C=CCN6CC[C@]43[C@@H]65)C2)C1 [Vinblastine, methyl (1R,9R,10S,11R,12R,19R)-11-(acetyloxy)-12-ethyl-4-[(13S,15R,17S)-17-ethyl-17-hydroxy-13-(methoxycarbonyl)-1,11-diazatetracyclo [13.3.1.0ˆ[1].0ˆ[1]]nonadeca-4(12),5(10),6,8-tetraen-13-yl]-10-hydroxy-5-methoxy-8-methyl-8,16-diazapentacyclo [10.6.1.0ˆ[1].0ˆ[1] .0ˆ[3]] nonadeca-2,4,6,13-tetraene-10-carboxylate] |  | 2120 | -0.24 ± 0.0 | LPLA2 inhibition (in words) ([2]; acyl transferase activity): millimolar concentrations
CN1[C@@H]2CC[C@H]1C[C@@H](OC(=O)C(CO)c1ccccc1)C2 (some centres unmarked) [Atropine] |  |  |  | IC50 ([2]; LPLA2 IC50): 1870 µM
Cl.NCCc1ccc(O)c(O)c1 [3-Hydroxy-tyramine hydrochloride] |  |  |  | pKa (basic) [1, 5]: 9.27; IC50 [2, 6]: 56.1 µM
OC(CCN1CCCC1)(c1ccccc1)C1CCCCC1 (centres unmarked) [Procyclidine] |  |  | 0.51 ± 0.0 | pKa (basic) [1, 5]: 13.84
CN1[C@@H]2CC[C@H]1C[C@@H](OC(c1ccccc1)c1ccccc1)C2 [Benztropine] |  |  |  | pKa (basic) [1, 5]: 9.54
CSC(=N)N [S-methylisothiourea] |  |  | -2.05 ± 0.6 | 
